Data from ChEMBL document CHEMBL3885881, “DrugMatrix”.

Species: Rattus norvegicus
Assay: DrugMatrix - Regimen: Daily Repeat
Format: toxicity, organism-based, Sprague-Dawley
Design: regimen Daily Repeat, gender Male, age 6-8 weeks
Details: in vivo, po, route oral GAVAGE, vehicle 100 % WATER; for ABSOLUTE BASOPHIL / ABSOLUTE EOSINOPHIL / ABSOLUTE LYMPHOCYTE / ABSOLUTE MONOCYTE / ABSOLUTE SEGMENTED NEUTROPHIL / BASOPHIL / EOSINOPHIL / ERYTHROCYTE COUNT / HEMATOCRIT / HEMOGLOBIN / LEUKOCYTE COUNT / LYMPHOCYTE / MEAN CORPUSCULAR HEMOGLOBIN / MEAN CORPUSCULAR HEMOGLOBIN CONCENTRATION / MEAN CORPUSCULAR VOLUME / MONOCYTE / NEUTROPHIL / NUCLEATED RED BLOOD CELLS / PLATELET COUNT: tissue Blood; for ALANINE AMINOTRANSFERASE / ALBUMIN / ALKALINE PHOSPHATASE / ASPARTATE AMINOTRANSFERASE / BLOOD UREA NITROGEN / CARBON DIOXIDE / CHLORIDE / CHOLESTEROL / CREATINE PHOSPHOKINASE / CREATININE / GLUCOSE / LACTATE DEHYDROGENASE / LIPASE / PHOSPHORUS / POTASSIUM / SODIUM / TOTAL BILIRUBIN / TOTAL PROTEIN / URIC ACID: tissue Plasma
[1] = 0 mg/kg, 72 h, dose level Control, time 3 day
[2] = 0 mg/kg, 120 h, dose level Control, time 5 day
[3] = 200 mg/kg, 72 h, dose level Low, time 3 day

With CC(O)CO (centres undefined) [PROPYLENE GLYCOL] the “ABSOLUTE BASOPHIL” value [1] was 0 CELLS/uL, the “ABSOLUTE EOSINOPHIL” value [1] was 40 CELLS/uL and the “ABSOLUTE LYMPHOCYTE” value [1] was 13599.5 CELLS/uL. The “ABSOLUTE MONOCYTE” value [1] was 239.33 CELLS/uL, the “ABSOLUTE SEGMENTED NEUTROPHIL” value [1] was 1021.17 CELLS/uL and the BASOPHIL [1] was 0%. For the same molecule, the EOSINOPHIL [1] was 0.33%, the “ERYTHROCYTE COUNT” value [1] was 5.71 x10E6/uL and the HEMATOCRIT [1] was 36.35%. For the same molecule, the HEMOGLOBIN [1] was 14.05 G/DL, the “LEUKOCYTE COUNT” value [1] was 14.9 x10E3/uL and the LYMPHOCYTE [1] was 91%. For the same molecule, the “MEAN CORPUSCULAR HEMOGLOBIN” value [1] was 24.62 pg, the “MEAN CORPUSCULAR HEMOGLOBIN CONCENTRATION” value [1] was 38.65 G/DL and the “MEAN CORPUSCULAR VOLUME” value [1] was 63.7 fL. The MONOCYTE [1] was 1.5%, the NEUTROPHIL [1] was 7.17% and the “NUCLEATED RED BLOOD CELLS” value [1] was 0.33 /100WBC. For the same molecule, the “PLATELET COUNT” value [1] was 1225.5 x10E3/uL, the “ALANINE AMINOTRANSFERASE” value [1] was 48.5 u/L and the ALBUMIN [1] was 4.18 G/DL. The “ALKALINE PHOSPHATASE” value [1] was 390.83 u/L, the “ASPARTATE AMINOTRANSFERASE” value [1] was 89 u/L and the “BLOOD UREA NITROGEN” value [1] was 14.83 mg/dL. The “CARBON DIOXIDE” value [1] was 24.83 mmol/L, the CHLORIDE [1] was 100.83 MEQ/L and the CHOLESTEROL [1] was 72.5 mg/dL. The “CREATINE PHOSPHOKINASE” value [1] was 503 u/L, the CREATININE [1] was 0.2 mg/dL and the GLUCOSE [1] was 163 mg/dL. The “LACTATE DEHYDROGENASE” value [1] was 316.83 u/L, the LIPASE [1] was 9.83 u/L and the PHOSPHORUS [1] was 11.57 mg/dL. The POTASSIUM [1] was 6.16 MEQ/L, the SODIUM [1] was 142.62 MEQ/L and the “TOTAL BILIRUBIN” value [1] was 0.2 mg/dL. The “TOTAL PROTEIN” value [1] was 5.8 G/DL, the “URIC ACID” value [1] was 1.65 mg/dL and the “ABSOLUTE BASOPHIL” value [2] was 0 CELLS/uL. The “ABSOLUTE EOSINOPHIL” value [2] was 21 CELLS/uL, the “ABSOLUTE LYMPHOCYTE” value [2] was 14288.5 CELLS/uL and the “ABSOLUTE MONOCYTE” value [2] was 205.33 CELLS/uL. For the same molecule, the “ABSOLUTE SEGMENTED NEUTROPHIL” value [2] was 968.5 CELLS/uL, the BASOPHIL [2] was 0% and the EOSINOPHIL [2] was 0.17%. For the same molecule, the “ERYTHROCYTE COUNT” value [2] was 5.83 x10E6/uL, the HEMATOCRIT [2] was 36.53% and the HEMOGLOBIN [2] was 14.4 G/DL. For the same molecule, the “LEUKOCYTE COUNT” value [2] was 15.48 x10E3/uL, the LYMPHOCYTE [2] was 92% and the “MEAN CORPUSCULAR HEMOGLOBIN” value [2] was 24.72 pg. For the same molecule, the “MEAN CORPUSCULAR HEMOGLOBIN CONCENTRATION” value [2] was 39.43 G/DL, the “MEAN CORPUSCULAR VOLUME” value [2] was 62.68 fL and the MONOCYTE [2] was 1.33%. For the same molecule, the NEUTROPHIL [2] was 6.5%, the “NUCLEATED RED BLOOD CELLS” value [2] was 0.17 /100WBC and the “PLATELET COUNT” value [2] was 1280.5 x10E3/uL. The “ALANINE AMINOTRANSFERASE” value [2] was 50 u/L, the ALBUMIN [2] was 4.28 G/DL and the “ALKALINE PHOSPHATASE” value [2] was 380.17 u/L. The “ASPARTATE AMINOTRANSFERASE” value [2] was 82.67 u/L, the “BLOOD UREA NITROGEN” value [2] was 15.33 mg/dL and the “CARBON DIOXIDE” value [2] was 27.17 mmol/L. For the same molecule, the CHLORIDE [2] was 100.33 MEQ/L, the CHOLESTEROL [2] was 60.67 mg/dL and the “CREATINE PHOSPHOKINASE” value [2] was 441.5 u/L. The CREATININE [2] was 0.16 mg/dL, the GLUCOSE [2] was 146 mg/dL and the “LACTATE DEHYDROGENASE” value [2] was 189.33 u/L. The LIPASE [2] was 9.17 u/L, the PHOSPHORUS [2] was 11.67 mg/dL and the POTASSIUM [2] was 6.86 MEQ/L. For the same molecule, the SODIUM [2] was 142.33 MEQ/L, the “TOTAL BILIRUBIN” value [2] was 0.2 mg/dL and the “TOTAL PROTEIN” value [2] was 6.12 G/DL. The “URIC ACID” value [2] was 1.82 mg/dL, the “ABSOLUTE BASOPHIL” value [3] was 0 CELLS/uL and the “ABSOLUTE EOSINOPHIL” value [3] was 56 CELLS/uL. The “ABSOLUTE LYMPHOCYTE” value [3] was 15882 CELLS/uL, the “ABSOLUTE MONOCYTE” value [3] was 135.33 CELLS/uL and the “ABSOLUTE SEGMENTED NEUTROPHIL” value [3] was 1393.33 CELLS/uL. The BASOPHIL [3] was 0%, the EOSINOPHIL [3] was 0.33% and the “ERYTHROCYTE COUNT” value [3] was 5.52 x10E6/uL. For the same molecule, the HEMATOCRIT [3] was 35.37%, the HEMOGLOBIN [3] was 13.53 G/DL and the “LEUKOCYTE COUNT” value [3] was 17.47 x10E3/uL. The LYMPHOCYTE [3] was 90.67%, the “MEAN CORPUSCULAR HEMOGLOBIN” value [3] was 24.5 pg and the “MEAN CORPUSCULAR HEMOGLOBIN CONCENTRATION” value [3] was 38.27 G/DL. For the same molecule, the “MEAN CORPUSCULAR VOLUME” value [3] was 64.1 fL, the MONOCYTE [3] was 0.67% and the NEUTROPHIL [3] was 8.33%. The “NUCLEATED RED BLOOD CELLS” value [3] was 0.33 /100WBC, the “PLATELET COUNT” value [3] was 1345.33 x10E3/uL and the “ALANINE AMINOTRANSFERASE” value [3] was 59 u/L. For the same molecule, the ALBUMIN [3] was 4.47 G/DL, the “ALKALINE PHOSPHATASE” value [3] was 378.33 u/L and the “ASPARTATE AMINOTRANSFERASE” value [3] was 90.33 u/L. For the same molecule, the “BLOOD UREA NITROGEN” value [3] was 16.33 mg/dL, the “CARBON DIOXIDE” value [3] was 27.33 mmol/L and the CHLORIDE [3] was 99.67 MEQ/L. For the same molecule, the CHOLESTEROL [3] was 81.33 mg/dL, the “CREATINE PHOSPHOKINASE” value [3] was 318 u/L and the CREATININE [3] was 0.22 mg/dL. For the same molecule, the GLUCOSE [3] was 153.67 mg/dL, the “LACTATE DEHYDROGENASE” value [3] was 212.33 u/L and the LIPASE [3] was 9 u/L. For the same molecule, the PHOSPHORUS [3] was 13.4 mg/dL, the POTASSIUM [3] was 7.26 MEQ/L and the SODIUM [3] was 145.23 MEQ/L. The “TOTAL BILIRUBIN” value [3] was 0.2 mg/dL, the “TOTAL PROTEIN” value [3] was 6.13 G/DL and the “URIC ACID” value [3] was 2.2 mg/dL.
